Among the data in US6509361B1, “1,5-Diaryl substituted pyrazoles as p38 kinase inhibitors” (Pharmacia Corporation, priority 2001, dated 2003) are IC50 and melting point values, retold here.

Where only a bound is given, the exact number is not on record here.

One data set addresses T1, human p38 kinase alpha (Homo sapiens, UniProt Q16539).
T1 construct: The coding region of the human p38a cDNA was obtained by PCR-amplification from RNA isolated from the human monocyte cell line THP.1; GST (N); made in house; host or cells: E. coli DH10B
Nature of the data set: p38 Kinase Assay (in vitro; PHAS-I/32P-ATP format or EGFRP/33P-ATP format). The data set is classed as biochemical. Particulars: activated human p38 kinase alpha, 50 μM unlabeled ATP; table does not say which of the two assay formats. The method, then:
The coding region of the human p38a cDNA was obtained by PCR-amplification from RNA isolated from the human monocyte cell line THP.1. First strand cDNA was synthesized from total RNA as follows: 2 μg of RNA was annealed to 100 ng of random hexamer primers in a 10 μl reaction by heating to 70° C. for 10 minutes followed by 2 minutes on ice. cDNA was then synthesized by adding 1 μl of RNAsin (Promega, Madison Wis.), 2 μl of 50 mM dNTP's, 4 μl of 5×buffer, 2 μl of 100 mM DTT and 1 μl (200 U) of Superscript II™ […] reverse transcriptase. Random primer, dNTP's and Superscript™ reagents were all purchased from Life-Technologies, Gaithersburg, Mass. The reaction was incubated at 42° C. for 1 hour. Amplification of p38 cDNA was performed by aliquoting 5 μl of the reverse transcriptase reaction into a 100 μl PCR reaction containing the following: 80 μl dH2O, 2 μl 50 mM dNTP's, 1 μl each of forward and reverse primers (50 pmol/μl), 10 μl of 10× buffer and 1 μl Expand™ polymerase (Boehringer Mannheim). The PCR primers incorporated Bam HI sites onto the 5′ and 3′ end of the amplified fragment, and were purchased from Genosys. The forward and reverse primers were 5′-[…]-3′ and 5′[…]-3′, respectively. The PCR amplification was carried out in a DNA Thermal Cycler (Perkin Elmer) by repeating 30 cycles of 94° C. for 1 minute, 60° C. for 1 minute and 68° C. for 2 minutes. After amplification, excess primers and unincorporated dNTP's were removed from the amplified fragment with a Wizard™ PCR prep (Promega) and digested with Bam HI (New England Biolabs). The Bam HI digested fragment was ligated into BamHI digested pGEX 2T plasmid DNA (PharmaciaBiotech) using T-4 DNA ligase (New England Biolabs) as described by T. Maniatis, Molecular Cloning: A Laboratory Manual, 2nd ed. (1989). The ligation reaction was transformed into chemically competent E. coli DH10B cells purchased from Life-Technologies following the manufacturer's instructions. Plasmid DNA was isolated from the resulting bacterial colonies using a Promega Wizard™ miniprep kit. Plasmids containing the appropriate Bam HI fragment were sequenced in a DNA Thermal Cycler (Perkin Elmer) with Prism™ (Applied Biosystems Inc.). cDNA clones were identified that coded for both human p38a isoforms (Lee et al. Nature 372, 739). One of the clones which contained the cDNA for p38a-2 (CSBP-2) inserted in the cloning site of pGEX 2T, 3′ of the GST coding region was designated pMON 35802. The sequence obtained for this clone is an exact match of the cDNA clone reported by Lee et al. This expression plasmid allows for the production of a GST-p38a fusion protein.
Expression of Human p38a:
GST/p38a fusion protein was expressed from the plasmid pMON 35802 in E. coli, stain DH10B (Life Technologies, Gibco-BRL). Overnight cultures were grown in Luria Broth (LB) containing […] ampicillin. The next day, 500 ml of fresh LB was inoculated with 10 ml of overnight culture, and grown in a 2 liter flask at 37° C. with constant shaking until the culture reached an absorbance of 0.8 at 600 nm. Expression of the fusion protein was induced by addition of isopropyl b-D-thiogalactosidse (IPTG) to a final concentration of 0.05 mM. The cultures were shaken for three hours at room temperature, and the cells were harvested by centrifugation. The cell pellets were stored frozen until protein purification.
Purification of p38 Kinase-α:
All chemicals were from Sigma Chemical Co. unless noted. Twenty grams of E. coli cell pellet collected from five 1 L shake flask fermentations was resuspended in a volume of PBS (140 mM NaCl, 2.7 mM KCl, 10 mM Na2HPO4, 1.8 mM KH2PO4, pH 7.3) up to 200 ml. The cell suspension was adjusted to 5 mM DTT with 2 M DTT and then split equally into five 50 ml Falcon conical tubes. The cells were sonnicated (Ultrasonics model W375) with a 1 cm probe for 3×1 minutes (pulsed) on ice. […]

Data set [1] has as its system TNF-a (LPS-stimulated human peripheral blood mononuclear cells). Nature of the data set: TNF Cell Assay: LPS stimulation of human PBM cells, TNF-a by ELISA. It counts as cell-based. Particulars: PBMC, LPS 20 ng/ml, overnight 37° C., compound 10-0.41 μM. The protocol:
Method of Isolation of Human Peripheral Blood Mononuclear Cells:
Human whole blood was collected in Vacutainer tubes containing EDTA as an anticoagulant. A blood sample (7 ml) was carefully layered over 5 ml PMN Cell Isolation Medium (Robbins Scientific) in a 15 ml round bottom centrifuge tube. The sample was centrifuged at 450-500×g for 30-35 minutes in a swing out rotor at room temperature. After centrifugation, the top band of cells were removed and washed 3 times with PBS w/o calcium or magnesium. The cells were centrifuged at 400×g for 10 minutes at room temperature. The cells were resuspended in Macrophage Serum Free Medium (Gibco BRL) at a concentration of 2 million cells/ml.
LPS Stimulation of Human PBMS:
PBM cells (0.1 ml, 2 million/ml) were co-incubated with 0.1 ml compound (10-0.41 μM, final concentration) for 1 hour in flat bottom 96 well microtiter plates. Compounds were dissolved in DMSO initially and diluted in TCM for a final concentration of 0.1% DMSO. LPS (Calbiochem, 20 ng/ml, final concentration) was then added at a volume of 0.010 ml. Cultures were incubated overnight at 37° C. Supernatants were then removed and tested by ELISA for TNF-a and IL1-b. Viability was analyzed using MTS. After 0.1 ml supernatant was collected, 0.020 ml MTS was added to remaining 0.1 ml cells. The cells were incubated at 37° C. for 2-4 hours, then the O.D. was measured at […].

Data set [2] deals with TNF-α released by U937 cells (human histiocytic lymphoma cell line). In words: U937 Cell Assay: LPS stimulation of TNF production by U937 cells, ELISA. Particulars: U-937, differentiated U937 cells, LPS 100 ng/ml, 4 hour incubation. It counts as cell-based. The method, then: Maintenance and Differentiation of the U937 Human Histiocytic Lymphoma Cell Line:
U937 cells (ATCC) were propagated in RPMI 1640 containing 10% fetal bovine serum, 100 IU/ml penicillin, 100 μg/ml streptomycin, and 2 mM glutamine (Gibco). Fifty million cells in 100 ml media were induced to terminal monocytic differentiation by 24 hour incubation with 20 ng/ml phorbol 12-myristate 13-acetate (Sigma). The cells were washed by centrifugation (200×g for 5 min) and resuspended in 100 ml fresh medium. After 24-48 hours, the cells were harvested, centrifuged, and resuspended in culture medium at 2 million cells/ml.
LPS Stimulation of TNF Production by U937 Cells:
U937 cells (0.1 ml, 2 million/ml) were incubated with 0.1 ml compound (0.004-50 μM, final concentration) for 1 hour in 96 well microtiter plates. Compounds were prepared as 10 mM stock solutions in DMSO and diluted in culture medium to yield a final DMSO concentration of 0.1% in the cell assay. LPS (E. coli, 100 ng/ml final concentration) was then added at a volume of 0.02 ml. After 4 hour incubation at 37° C., the amount of TNF-α released in the culture medium was quantitated by ELISA. Inhibitory potency is expressed as IC50 (μM).
For orientation: ELISA stands for enzyme-linked immunosorbent assay.

T1 sequence (Q16539 whole entry): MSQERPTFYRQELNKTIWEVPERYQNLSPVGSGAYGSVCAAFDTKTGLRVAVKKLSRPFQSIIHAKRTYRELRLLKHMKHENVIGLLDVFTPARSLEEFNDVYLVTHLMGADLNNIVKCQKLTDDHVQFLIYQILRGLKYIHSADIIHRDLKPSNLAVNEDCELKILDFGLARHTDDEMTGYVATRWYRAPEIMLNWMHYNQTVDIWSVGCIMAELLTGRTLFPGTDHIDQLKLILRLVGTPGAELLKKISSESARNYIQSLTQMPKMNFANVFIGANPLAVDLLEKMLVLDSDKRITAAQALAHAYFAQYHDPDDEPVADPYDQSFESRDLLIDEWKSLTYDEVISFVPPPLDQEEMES

In general, IC50 refers to the midpoint of a concentration-inhibition curve. Broadly, the melting point is the temperature of the solid-liquid transition. As to `Cc1cccc(-n2nc(C)cc2-c2ccnc(NCCc3ccccc3)c2)c1` [Example 24, 2-(Phenylethylamino)-4-[1-(3-methylphenyl)-3-methyl-1H-pyrazol-5-yl]pyridine], the melting point lay in the range of 86 to 87 °C. For the same compound, at human p38 kinase alpha, the 50% inhibitory concentration (IC50) was < 0.01 µM. Besides, the concentration for half-maximal inhibition (IC50) in data set [1] was 0.02 µM. The IC50 in data set [2] was determined as 0.05 µM.

In turn, `Cc1cccc(-n2nc(C)cc2-c2ccnc(C#N)c2)c1` [Example 31, 2-Cyano-4-[1-(3-methylphenyl)-3 methyl-1H-pyrazol-5-yl]pyridine] had a melting point of 128 to 130 °C. For the same compound, the IC50 against human p38 kinase alpha stood at 0.5 µM. The compound further yielded a 50% inhibitory concentration (IC50) in data set [1] of 1.7 µM. Moreover, the IC50 in data set [2] came out at 1.65 µM.

`Cc1cc(-c2ccnc(C#N)c2)n(-c2ccc(F)cc2)n1` [Example 32, 2-Cyano-4-[1-(4-fluorophenyl)-3-methyl-1H-pyrazol-5-yl]pyridine] displayed a melting point of 94 to 95 °C. This compound also returned a half-maximal inhibitory concentration (IC50) against human p38 kinase alpha of 2.97 µM. Also, in data set [1], the half-inhibitory concentration (IC50) was > 10 µM. In addition, the IC50 in data set [2] was > 10 µM.

`Cc1cccc(-n2nc(C)cc2-c2ccnc(N(C)C)c2)c1` [Example 35, 2-(Dimethylamino)-4-[1-(3-methylphenyl)-3-methyl-1H-pyrazol-5-yl]pyridine] gave a melting point of 84 to 85 °C. On human p38 kinase alpha, the IC50 is 1.15 µM. This compound also registered an IC50 in data set [1] of 3.4 µM. Further, the IC50 in data set [2] is ≥ 10 µM.
